A short description of the series: gradient 5% acetonitrile 3 min, to 50% in 2 min, to 85% in 15 min, held 3 min, 100 µL/min. The settings on record: column: Zorbax Extend-C18 2.1 x 50 mm; eluents: water / acetonitrile, 0.1% formic acid. In outline:
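Standards, all pure, were combined into mixtures of ~100 molecules and run at 100 μL/min on a Zorbax Extend-C18 column (2.1 × 50 mm, 1.8 μm) with water and acetonitrile, each containing 0.1% formic acid. A coupled quadrupole time-of-flight mass spectrometer operated in positive and negative ionization mode. Retention time values come from computationally picked adduct peaks, each inspected manually.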
Compound `COc1ccc(N2CCN(C(=O)c3cc(NC(C)=O)cc4nc(C)ccc34)CC2)cc1` registered an RP-LC retention time of 603 s.
The compound `Cc1noc(C2CN(C(=O)Nc3ccccc3C)CC23CCOCC3)n1` (stereo not given) gave an RP-LC retention time of 700 s.
With `CN1CCN(C2Cc3ccccc3Sc3ccc(Cl)cc32)CC1` (stereo not given), the RP-LC retention time is 872 s.
Then `Cc1nc(-c2cn(C(C)C)c3ncccc23)sc1C(=O)NCCN1CCOCC1`, with 630 s; and `O=C(Nc1ccccc1F)C1CCCN(S(=O)(=O)c2c[nH]c(C(=O)N3CCCC3)c2)C1` (stereo not given), with 772 s; and `CCOc1nc2ccccc2nc1N1CCCC(C(=O)Nc2cc(C)c(Cl)cc2OC)C1` (stereo not given), with 1400 s.
The compound `CC(=O)NCc1csc(C2CCCN(C(=O)COc3ccccc3)C2)n1` (stereo not given) gave an RP-LC retention time of 670 s.
The result for `Cc1ccc(-c2nc(-c3ccnc(N4CCOCC4)c3)no2)cc1` reads 1050 s.
For the compound `COCC1CN(C(=O)c2ccc(Br)o2)CCC1(F)F` (stereo not given), the RP-LC retention time turned out to be 847 s.
Consider `CCOC(=O)c1noc2nc(C)nc(NC3CCN(Cc4ccccc4)CC3)c12`, for which the RP-LC retention time is 648 s.
The result for `O=C(CCc1nc2ccccc2[nH]1)NCC1CCOCC1` reads 555 s.
`O=C(Cc1nnc2c(-c3nc(C4CC4)no3)cccn12)N1CCCCCC1` returned an RP-LC retention time of 674 s.
The result for `COc1cccc(NC(=O)c2cnc3c(c2)c(=O)n(C)c(=O)n3C)c1` reads 795 s; that for `COc1ccc(NC(=O)Cn2c(=O)c3cc(-c4cccs4)nn3c3ncccc32)cc1`, 810 s; that for `COc1ccc(-n2ccc(=O)c(-c3nc(-c4ccc5c(c4)OCO5)no3)n2)cc1`, 855 s.
The result for `COc1ccc(CCNC(=O)CN2C(=O)NC3(CCC(C)CC3)C2=O)cc1OC` (stereo not given) reads 740 s; that for `COc1cc(OC)c(NC(=O)CN2C(=O)C(C)(C)c3ccccc32)cc1Cl`, 954 s; that for `Cn1nc(C(=O)N2CCOCC2)c2c1CCN(C(=O)Nc1ccccc1Cl)C2`, 674 s.
Consider `CCn1c(SC)nnc1-c1nn(C)c2c1CN(C(=O)c1c(F)cccc1F)CC2`, for which the RP-LC retention time turned out to be 765 s.
In the case of `CC1CN(Cc2nc3c(c(=O)n(C)c(=O)n3C)n2CCCc2ccccc2)CC(C)O1` (stereo not given), the RP-LC retention time stood at 732 s.
Then `Cc1ccc(C)c(N2C(=O)CN(S(C)(=O)=O)CC2(C)C(=O)NCc2ccccc2)c1` (stereo not given), with 809 s; and `COc1cccc(-c2csc(-c3nnn(-c4cccc(OC)c4)c3N)n2)c1`, with 1110 s.
Compound `CN(Cc1ccccc1)C(=O)c1cccc(NC(=O)[C@H]2[C@@H]3C[C@@H]4[C@H]2C(=O)O[C@@H]4C3)c1` showed an RP-LC retention time of 766 s.
Then `COc1ccc(-c2nc(Cc3noc(-c4ccccc4OC)n3)c(C)o2)cc1`, with 1070 s; and `Cc1ccccc1-c1cc(C(N)=O)c2ccccc2n1`, with 718 s.
The result for `COc1cc(NC(=O)N2CCN(c3cc(C)nc(N4CCOCC4)n3)CC2)cc(OC)c1` reads 627 s; that for `Cn1nc(-c2nnc(-c3ccccc3F)o2)c2c1CCN(S(=O)(=O)c1ccc(Cl)s1)C2`, 1010 s.
Turning to `CCN1C(=O)COc2ccc(-c3noc(C4CC(=O)N(c5ccc(C)cc5)C4)n3)cc21` (stereo not given), the RP-LC retention time was 878 s.
The compound `COc1cccc(NC(=O)C2CCc3nc(N4CCCCC4)ncc3C2)c1` (stereo not given) returned an RP-LC retention time of 782 s.
Take `Cc1csc(-c2ccc(CNC(=O)C3CCOC3)cc2)n1` (stereo not given): the RP-LC retention time was found to be 678 s.
As to `Cc1cccc(N2CCN(C(=O)Cc3nnc(-c4sccc4C)o3)CC2)c1`, the RP-LC retention time amounted to 921 s.
The compound `CCn1cc(CCNC(=O)Cc2cccs2)c2cccnc21` registered an RP-LC retention time of 651 s.
The result for `O=C(CSc1ccc(-c2ccccn2)nn1)N1CCCCC1` reads 669 s; that for `CCN1CCN(C(=O)C2CCN(S(=O)(=O)c3ccc4c(c3)sc(=O)n4C(C)C)CC2)CC1`, 650 s; that for `CCn1cc(-c2nc(CC(=O)Nc3ccc(C)cc3F)cs2)c2cccnc21`, 865 s.
As for `CC(C)NC(=O)N1CCCC(c2cccc(C(=O)NCc3ccc(F)cc3F)c2)C1` (stereo not given), the RP-LC retention time amounted to 862 s.
As for `O=C(Cn1nc2n(c1=O)CCCC2)Nc1ccc(F)c(Cl)c1`, the RP-LC retention time amounted to 670 s.
Turning to `COc1ccc2c(c1)C1(CCN(C(=O)c3ccc(C#N)cc3)C1)C(=O)N2C` (stereo not given), the RP-LC retention time came out at 735 s.
Then `O=C(O)CCC1CCCN(S(=O)(=O)c2ccc(F)cc2)C1` (stereo not given), with 782 s; and `CC(C)CNC(=O)CCC(=O)N1c2ccccc2NC2=C(C(=O)CC(C)(C)C2)C1c1ccco1` (stereo not given), with 743 s.
With `Cc1ccccc1CN1C[C@@H]2C(=O)N(CCc3ccccc3)C(=O)[C@@H]2C1`, the RP-LC retention time turned out to be 829 s.
For `O=C(C1CCCN(c2ncccc2-c2noc(C3CCC3)n2)C1)N1CCCCC1` (stereo not given), the RP-LC retention time amounted to 928 s.
The compound `Cc1noc(C)c1S(=O)(=O)N1CCC(n2c(C)cnc2-c2ccccc2)CC1` yielded an RP-LC retention time of 682 s.
Then `CCn1ncc(NC(=O)c2ccc(OC)c(OC)c2)c(N2CCOCC2)c1=O`, with 722 s.
Then `Cc1cc(NC(=O)NCCn2nnc3cc(C(=O)N(C)C)ccc32)ccc1Br`, with 707 s.
Then `Cc1ccc(-c2cc(C(=O)NCCN3CCCC3)n(C)c2)cc1`, with 670 s.
On to `COc1ccccc1/C=C/C(=O)N1CCC(c2cc(N)on2)CC1`, for which the RP-LC retention time was found to be 720 s.
Consider `Cc1noc2nc(C)n(CC(=O)NC(C)CCc3ccccc3)c(=O)c12` (stereo not given), for which the RP-LC retention time is 842 s.
The result for `CCCn1cc(C(=O)NCc2ccc3c(c2)OCO3)c2cccnc21` reads 758 s.
Then `O=C(Cn1cnc(-c2nc(-c3ccccc3)cs2)c1)N1CCN(c2ccccc2)CC1`, with 853 s; and `O=C(NCC(O)C1CCCCC1)c1cccc2ccccc12` (stereo not given), with 802 s.
Then `O=C(COc1ccc(F)cc1)NCC1CCC(c2nc3ccccc3[nH]2)CC1` (stereo not given), with 578 s; and `Cc1ccccc1S(=O)(=O)N1CCc2nc(-c3ccc(Cl)cc3)ncc2C1`, with 1240 s; and `Cn1c(C(=O)N2CCN(c3ccccn3)CC2)cc2c(=O)oc3ccccc3c21`, with 607 s.
Regarding `CC(C)CC(=O)Nc1ccc(-n2cnc(C(=O)N3CCN(c4ccccc4)CC3)c2)nc1`, the RP-LC retention time was 819 s.
Then `O=C(CCC(=O)N1CC2CCCN2c2ccccc21)NCCN1CCCCCC1` (stereo not given), with 646 s; and `O=C(NC1CCCCC1)C1CCc2nc(N3CCCCC3)ncc2C1` (stereo not given), with 723 s; and `CC(C)n1c(=O)oc2cc(-c3noc(CNC(=O)c4ccccc4)n3)ccc21`, with 851 s.
Compound `O=S(=O)(c1cc(F)ccc1F)N1CCCCC1c1noc(COCC2CC2)n1` (stereo not given) gave an RP-LC retention time of 1130 s.
Then `Cc1cc(C)cc(Nc2nc(C)cc(=O)n2CC(=O)Nc2ccc(Br)cc2)c1`, with 966 s; and `Cn1c(=O)oc2cc(-c3noc(CCc4ccccc4)n3)ccc21`, with 1030 s; and `COC(=O)c1cnc(N2CCN(c3ccccn3)CC2)c2ccccc12`, with 640 s.
In the case of `CCN1CCN(C(=O)C(C)n2c3ccccc3c3cnn(C)c(=O)c32)CC1` (stereo not given), the RP-LC retention time came out at 585 s.
Then `CCn1nc(C)c(CCNC(=O)Nc2ccccc2C(=O)OC)c1C`, with 646 s; and `Cc1ccc(S(=O)(=O)N2CCC3(CC2)NCCN=C3NCc2ccccc2)c(C)c1`, with 739 s; and `CCC1Oc2ccc(S(=O)(=O)N3CCC(C(=O)NC4CCC(C)CC4)CC3)cc2NC1=O` (stereo not given), with 904 s.
The result for `Cc1ccc(Nc2c(-c3ccccc3O)nc3ccc(C)cn23)cc1` reads 774 s; that for `CCNC(=O)C1CCN(c2nc3ccc(-c4ccsc4)nc3s2)CC1`, 799 s; that for `Cc1nn(-c2ccc(-c3ccccc3)nn2)c(C)c1S(=O)(=O)N(C)Cc1ccccc1`, 1190 s.
Then `O=C(c1ccc(-c2cccs2)nc1)N1CCN(c2ccccc2)CC1`, with 935 s; and `Cn1nnnc1SCC(=O)NCCn1nc(-c2cccs2)ccc1=O`, with 611 s.
For the compound `CNc1cccnc1OC1CCN(S(=O)(=O)c2ccc3c(c2)CCC3)C1` (stereo not given), the RP-LC retention time came to 765 s.
In the case of `Cc1nnc(-c2ccc3ccn(CC(=O)NCc4ccc5c(c4)OCO5)c3c2)o1`, the RP-LC retention time came out at 756 s.
`CCN1C(=O)C2(CCN(S(=O)(=O)c3cc(F)ccc3OC)CC2)c2ccccc21` yielded an RP-LC retention time of 1030 s.
Then `CCN1C(=O)c2cccnc2Sc2cc(NC(=O)c3ccc(C)cc3C)ccc21`, with 918 s; and `CNC(=O)[C@@H]1C[C@H](Oc2cccnc2)CN1C(=O)C1CC=CC1`, with 554 s.
`Nc1c(CC(=O)O)cccc1C(=O)c1ccc(Br)cc1` gave an RP-LC retention time of 909 s.
`COc1cc(NC(=O)Cn2nc([N+](=O)[O-])cc2C)c(OC)cc1Cl` yielded an RP-LC retention time of 829 s.
Then `O=C(O)c1cc(-c2ccc3c(c2)OCO3)nc2cc3c(cc12)OCCO3`, with 690 s.
The result for `Cc1cc(C)n(-c2nc(CC(=O)Nc3nc(-c4ccccc4)cs3)cs2)n1` reads 1120 s.

For the origin of these results see the METLIN SMRT retention time set (Domingo-Almenara et al. 2019).
